Measurements as given in PMC7441158 (Nature Communications, 2020).

Experiments:
neprilysin (NEP) = assay: NEP (R&D Systems) in 50 mM Tris, 0.05% Brij-35, pH 9.0; settings: 37 °C, up to 24 h
VIP receptor 2 (VPAC2) = target: T1, VIP receptor 2 (VPAC2) (Homo sapiens, UniProt P41587); assay: cAMP assay, COS-7 cells transiently expressing VPAC2; format: cell-based; settings: for % receptor activation at 1µM agonist: VPAC2 + VIP, Suppl. fig 5a source data; for EC50: log(EC50) VPAC 2 + VIP, log10 of EC50, COS-7 cells, cAMP, Hill = 1, top constrained to 100%
T1 sequence (P41587 24-438): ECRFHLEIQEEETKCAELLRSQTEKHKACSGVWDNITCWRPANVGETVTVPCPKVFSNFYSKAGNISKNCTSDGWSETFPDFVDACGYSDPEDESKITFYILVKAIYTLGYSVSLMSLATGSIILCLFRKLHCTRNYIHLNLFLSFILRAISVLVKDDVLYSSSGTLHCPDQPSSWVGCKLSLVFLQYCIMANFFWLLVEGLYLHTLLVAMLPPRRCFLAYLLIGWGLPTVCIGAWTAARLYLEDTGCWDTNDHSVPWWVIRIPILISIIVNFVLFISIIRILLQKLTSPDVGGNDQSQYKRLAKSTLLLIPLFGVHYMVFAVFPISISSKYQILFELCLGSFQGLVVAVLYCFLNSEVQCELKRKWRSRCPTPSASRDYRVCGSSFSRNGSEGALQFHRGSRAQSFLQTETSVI

VIP receptor 1 (VPAC1) = target: T2, VIP receptor 1 (VPAC1) (Homo sapiens, UniProt P32241); assay: cAMP assay, COS-7 cells transiently expressing VPAC1; format: cell-based; settings: for EC50: log(EC50) VPAC1 + VIP, log10 of EC50, COS-7 cells, cAMP, Hill = 1, top constrained to 100%; for % receptor activation at 1µM agonist: VPAC1 + VIP, Suppl. fig 5a source data
T2 sequence (P32241 31-457): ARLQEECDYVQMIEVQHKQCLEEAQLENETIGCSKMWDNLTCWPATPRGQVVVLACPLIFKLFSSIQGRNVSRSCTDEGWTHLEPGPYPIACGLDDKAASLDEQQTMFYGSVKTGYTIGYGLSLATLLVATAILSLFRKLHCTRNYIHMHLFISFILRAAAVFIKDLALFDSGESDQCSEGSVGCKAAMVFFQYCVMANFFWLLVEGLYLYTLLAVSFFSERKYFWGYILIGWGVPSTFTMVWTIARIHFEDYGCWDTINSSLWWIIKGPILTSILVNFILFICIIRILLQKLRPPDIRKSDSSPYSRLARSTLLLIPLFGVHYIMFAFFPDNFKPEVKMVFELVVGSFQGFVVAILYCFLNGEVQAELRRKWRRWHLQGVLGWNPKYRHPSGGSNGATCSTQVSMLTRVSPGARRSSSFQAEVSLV

[1] = independent experiment 1, duplicate determinations
[2] = independent experiment 2, duplicate determinations
[3] = independent experiment 3, duplicate determinations

| not cleaved (neprilysin (NEP)) | Molecule | % receptor activation at 1µM agonist (VIP receptor 2 (VPAC2); replicate 1) [%] | % receptor activation at 1µM agonist (VIP receptor 2 (VPAC2); replicate 2) [%] | % receptor activation at 1µM agonist (VIP receptor 2 (VPAC2); replicate 3) [%] | % receptor activation at 1µM agonist (VIP receptor 2 (VPAC2); replicate 4) [%] | % receptor activation at 1µM agonist (VIP receptor 2 (VPAC2); replicate 5) [%] | % receptor activation at 1µM agonist (VIP receptor 2 (VPAC2); replicate 6) [%] | EC50 (VIP receptor 2 (VPAC2); [1]) [nM] | EC50 (VIP receptor 2 (VPAC2); [2]) [nM] | EC50 (VIP receptor 2 (VPAC2); [3]) [nM] | Efficacy raw data for Glucagon-receptors, VPAC2 + VIP (VIP receptor 2 (VPAC2); replicate 1) | Efficacy raw data for Glucagon-receptors, VPAC2 + VIP (VIP receptor 2 (VPAC2); replicate 3) | EC50 (VIP receptor 1 (VPAC1); [1]) [nM] | EC50 (VIP receptor 1 (VPAC1); [2]) [nM] | EC50 (VIP receptor 1 (VPAC1); [3]) [nM] | Efficacy raw data for Glucagon-receptors, VPAC1 + VIP (VIP receptor 1 (VPAC1); replicate 1) | Efficacy raw data for Glucagon-receptors, VPAC1 + VIP (VIP receptor 1 (VPAC1); replicate 2) | Efficacy raw data for Glucagon-receptors, VPAC1 + VIP (VIP receptor 1 (VPAC1); replicate 3) | Efficacy raw data for Glucagon-receptors, VPAC2 + VIP (VIP receptor 2 (VPAC2); replicate 2) | further results |
| --- | --- | --- | --- | --- | --- | --- | --- | --- | --- | --- | --- | --- | --- | --- | --- | --- | --- | --- | --- | --- |
| −: not susceptible to degradation | GWTLNSAGYLLGPHAVGNHRSFSDKNGLTS [Galanin T] | – | – | – | – | – | – | – | – | – | – | – | – | – | – | – | – | – | – | – |
| −: not susceptible to degradation | HSDAVFTDNYTRLRKQMAVKKYLNSILN | – | – | – | – | – | – | – | – | – | – | – | – | – | – | – | – | – | – | – |
| −: not susceptible to degradation | HSDGTFTSELSRLREGARLQRLLQGLV | – | – | – | – | – | – | – | – | – | – | – | – | – | – | – | – | – | – | – |

Further lines, the molecule ahead of its results:

| Molecule | not cleaved (neprilysin (NEP)) | % receptor activation at 1µM agonist (VIP receptor 2 (VPAC2); replicate 1) [%] | % receptor activation at 1µM agonist (VIP receptor 2 (VPAC2); replicate 2) [%] | % receptor activation at 1µM agonist (VIP receptor 2 (VPAC2); replicate 3) [%] | % receptor activation at 1µM agonist (VIP receptor 2 (VPAC2); replicate 4) [%] | % receptor activation at 1µM agonist (VIP receptor 2 (VPAC2); replicate 5) [%] | % receptor activation at 1µM agonist (VIP receptor 2 (VPAC2); replicate 6) [%] | EC50 (VIP receptor 2 (VPAC2); [1]) [nM] | EC50 (VIP receptor 2 (VPAC2); [2]) [nM] | EC50 (VIP receptor 2 (VPAC2); [3]) [nM] | Efficacy raw data for Glucagon-receptors, VPAC2 + VIP (VIP receptor 2 (VPAC2); replicate 1) | Efficacy raw data for Glucagon-receptors, VPAC2 + VIP (VIP receptor 2 (VPAC2); replicate 3) | EC50 (VIP receptor 1 (VPAC1); [1]) [nM] | EC50 (VIP receptor 1 (VPAC1); [2]) [nM] | EC50 (VIP receptor 1 (VPAC1); [3]) [nM] | Efficacy raw data for Glucagon-receptors, VPAC1 + VIP (VIP receptor 1 (VPAC1); replicate 1) | Efficacy raw data for Glucagon-receptors, VPAC1 + VIP (VIP receptor 1 (VPAC1); replicate 2) | Efficacy raw data for Glucagon-receptors, VPAC1 + VIP (VIP receptor 1 (VPAC1); replicate 3) | Efficacy raw data for Glucagon-receptors, VPAC2 + VIP (VIP receptor 2 (VPAC2); replicate 2) | further results |
| --- | --- | --- | --- | --- | --- | --- | --- | --- | --- | --- | --- | --- | --- | --- | --- | --- | --- | --- | --- | --- |
| CC[C@H](C)[C@H](NC(=O)[C@H](CO)NC(=O)[C@H](CC(N)=O)NC(=O)[C@H](CC(C)C)NC(=O)[C@H](Cc1ccc(O)cc1)NC(=O)[C@H](CCCCN)NC(=O)[C@H](CCCCN)NC(=O)[C@@H](NC(=O)[C@H](C)NC(=O)[C@H](CCSC)NC(=O)[C@H](CCC(N)=O)NC(=O)[C@H](CCCCN)NC(=O)[C@H](CCCNC(=N)N)NC(=O)[C@H](CC(C)C)NC(=O)[C@H](CCCNC(=N)N)NC(=O)[C@@H](NC(=O)[C@H](Cc1ccc(O)cc1)NC(=O)[C@H](CC(N)=O)NC(=O)[C@H](CC(=O)O)NC(=O)[C@@H](NC(=O)[C@H](Cc1ccccc1)NC(=O)[C@@H](NC(=O)[C@H](C)NC(=O)[C@H](CC(=O)O)NC(=O)[C@H](CO)NC(=O)[C@@H](N)Cc1c[nH]cn1)C(C)C)[C@@H](C)O[C@H]1O[C@H](CO)[C@H](O)[C@H](O[C@@H]2O[C@H](CO)[C@H](O)[C@H](O[C@]3(C(=O)O)C[C@H](O)[C@@H](NC(C)=O)[C@H]([C@H](O)[C@H](O)CO)O3)[C@H]2O)[C@H]1NC(C)=O)[C@@H](C)O)C(C)C)C(=O)N[C@@H](CC(C)C)C(=O)N[C@@H](CC(N)=O)C(N)=O [VIP ST] | – | 68.0 | 68.9 | 66.1 | 69.7 | 54.2 | 49.2 | 378 | 596 | 946 | 72.87 | 74.68 | 34.1 | 116 | 162 | 91.02 | 112.4 | 93.56 | – | – |
| CC[C@H](C)[C@H](NC(=O)[C@H](CO)NC(=O)[C@H](CC(N)=O)NC(=O)[C@H](CC(C)C)NC(=O)[C@H](Cc1ccc(O)cc1)NC(=O)[C@H](CCCCN)NC(=O)[C@H](CCCCN)NC(=O)[C@@H](NC(=O)[C@H](C)NC(=O)[C@H](CCSC)NC(=O)[C@H](CCC(N)=O)NC(=O)[C@H](CCCCN)NC(=O)[C@H](CCCNC(=N)N)NC(=O)[C@H](CC(C)C)NC(=O)[C@H](CCCNC(=N)N)NC(=O)[C@@H](NC(=O)[C@H](Cc1ccc(O)cc1)NC(=O)[C@H](CC(N)=O)NC(=O)[C@H](CC(=O)O)NC(=O)[C@@H](NC(=O)[C@H](Cc1ccccc1)NC(=O)[C@@H](NC(=O)[C@H](C)NC(=O)[C@H](CC(=O)O)NC(=O)[C@H](CO)NC(=O)[C@@H](N)Cc1c[nH]cn1)C(C)C)[C@@H](C)O[C@H]1O[C@H](CO)[C@H](O)[C@H](O[C@@H]2O[C@H](CO)[C@H](O)[C@H](O)[C@H]2O)[C@H]1NC(C)=O)[C@@H](C)O)C(C)C)C(=O)N[C@@H](CC(C)C)C(=O)N[C@@H](CC(N)=O)C(N)=O [VIP T] | – | 72.7 | 72.4 | 74.8 | 68.0 | 58.9 | 52.3 | 202 | 422 | 718 | 75.53 | 67.09 | 18.9 | 88.7 | 45.8 | 95.97 | 106.4 | 107.3 | 106.2 | % receptor activation at 1µM agonist (VIP receptor 1 (VPAC1); replicate 5): 104.2% |
| CC[C@H](C)[C@H](NC(=O)[C@H](CO)NC(=O)[C@H](CC(N)=O)NC(=O)[C@H](CC(C)C)NC(=O)[C@H](Cc1ccc(O)cc1)NC(=O)[C@H](CCCCN)NC(=O)[C@H](CCCCN)NC(=O)[C@@H](NC(=O)[C@H](C)NC(=O)[C@H](CCSC)NC(=O)[C@H](CCC(N)=O)NC(=O)[C@H](CCCCN)NC(=O)[C@H](CCCNC(=N)N)NC(=O)[C@H](CC(C)C)NC(=O)[C@H](CCCNC(=N)N)NC(=O)[C@@H](NC(=O)[C@H](Cc1ccc(O)cc1)NC(=O)[C@H](CC(N)=O)NC(=O)[C@H](CC(=O)O)NC(=O)[C@@H](NC(=O)[C@H](Cc1ccccc1)NC(=O)[C@@H](NC(=O)[C@H](C)NC(=O)[C@H](CC(=O)O)NC(=O)[C@H](CO)NC(=O)[C@@H](N)Cc1c[nH]cn1)C(C)C)[C@@H](C)O[C@H]1O[C@H](CO)[C@H](O)[C@H](O)[C@H]1NC(C)=O)[C@@H](C)O)C(C)C)C(=O)N[C@@H](CC(C)C)C(=O)N[C@@H](CC(N)=O)C(N)=O [VIP Tn] | – | 70.4 | 67.4 | 67.0 | 57.3 | 63.7 | 60.1 | 421 | 656 | 577 | 74.75 | 78.02 | 42.6 | 207 | 101 | 102 | 111.1 | 105.8 | 186 | % receptor activation at 1µM agonist (VIP receptor 1 (VPAC1); replicate 4): 82.0% |
